Oligonucleotides are given in HELM: sugar(base)linkage, 5' to 3'; d 2'-deoxyribose, r ribose, m 2'-O-methylribose, p phosphate. ss, as = sense and antisense strand
The substances below were run against UBE2D3 (assay: reporter assay of Huesken 2005). Conditions: siRNA.
Further: test concentration or dose not given here.

Substance	normalised inhibition (eCFP-eYFP dual reporter) [%]
RNA1{r(U)p.r(G)p.r(G)p.r(G)p.r(A)p.r(C)p.r(C)p.r(U)p.r(A)p.r(A)p.r(U)p.r(G)p.r(A)p.r(C)p.r(A)p.r(G)p.r(C)p.r(C)p.r(C)p.d(T)p.d(T)}|RNA2{r(G)p.r(G)p.r(G)p.r(C)p.r(U)p.r(G)p.r(U)p.r(C)p.r(A)p.r(U)p.r(U)p.r(A)p.r(G)p.r(G)p.r(U)p.r(C)p.r(C)p.r(C)p.r(A)p.d(T)p.d(A)}$$$RNA1{StrandType:ss}|RNA2{StrandType:as}$	48.6
RNA1{r(G)p.r(G)p.r(U)p.r(C)p.r(C)p.r(A)p.r(G)p.r(U)p.r(U)p.r(G)p.r(G)p.r(G)p.r(G)p.r(A)p.r(U)p.r(G)p.r(A)p.r(U)p.r(A)p.d(T)p.d(T)}|RNA2{r(U)p.r(A)p.r(U)p.r(C)p.r(A)p.r(U)p.r(C)p.r(C)p.r(C)p.r(C)p.r(A)p.r(A)p.r(C)p.r(U)p.r(G)p.r(G)p.r(A)p.r(C)p.r(C)p.d(T)p.d(G)}$$$RNA1{StrandType:ss}|RNA2{StrandType:as}$	93.7
RNA1{r(C)p.r(U)p.r(A)p.r(C)p.r(A)p.r(G)p.r(A)p.r(C)p.r(U)p.r(A)p.r(C)p.r(C)p.r(C)p.r(C)p.r(U)p.r(U)p.r(C)p.r(A)p.r(A)p.d(T)p.d(T)}|RNA2{r(U)p.r(U)p.r(G)p.r(A)p.r(A)p.r(G)p.r(G)p.r(G)p.r(G)p.r(U)p.r(A)p.r(G)p.r(U)p.r(C)p.r(U)p.r(G)p.r(U)p.r(A)p.r(G)p.d(G)p.d(A)}$$$RNA1{StrandType:ss}|RNA2{StrandType:as}$	94.9
RNA1{r(U)p.r(U)p.r(U)p.r(A)p.r(C)p.r(A)p.r(A)p.r(C)p.r(A)p.r(A)p.r(G)p.r(A)p.r(A)p.r(U)p.r(U)p.r(U)p.r(A)p.r(U)p.r(C)p.d(T)p.d(T)}|RNA2{r(G)p.r(A)p.r(U)p.r(A)p.r(A)p.r(A)p.r(U)p.r(U)p.r(C)p.r(U)p.r(U)p.r(G)p.r(U)p.r(U)p.r(G)p.r(U)p.r(A)p.r(A)p.r(A)p.d(T)p.d(G)}$$$RNA1{StrandType:ss}|RNA2{StrandType:as}$	48.8
RNA1{r(U)p.r(U)p.r(C)p.r(A)p.r(A)p.r(A)p.r(C)p.r(C)p.r(A)p.r(C)p.r(C)p.r(U)p.r(A)p.r(A)p.r(G)p.r(G)p.r(U)p.r(U)p.r(G)p.d(T)p.d(T)}|RNA2{r(C)p.r(A)p.r(A)p.r(C)p.r(C)p.r(U)p.r(U)p.r(A)p.r(G)p.r(G)p.r(U)p.r(G)p.r(G)p.r(U)p.r(U)p.r(U)p.r(G)p.r(A)p.r(A)p.d(G)p.d(G)}$$$RNA1{StrandType:ss}|RNA2{StrandType:as}$	64.4
RNA1{r(G)p.r(G)p.r(G)p.r(A)p.r(U)p.r(G)p.r(A)p.r(U)p.r(A)p.r(U)p.r(G)p.r(U)p.r(U)p.r(U)p.r(C)p.r(A)p.r(U)p.r(U)p.r(G)p.d(T)p.d(T)}|RNA2{r(C)p.r(A)p.r(A)p.r(U)p.r(G)p.r(A)p.r(A)p.r(A)p.r(C)p.r(A)p.r(U)p.r(A)p.r(U)p.r(C)p.r(A)p.r(U)p.r(C)p.r(C)p.r(C)p.d(C)p.d(A)}$$$RNA1{StrandType:ss}|RNA2{StrandType:as}$	95
RNA1{r(A)p.r(C)p.r(U)p.r(A)p.r(C)p.r(C)p.r(C)p.r(C)p.r(U)p.r(U)p.r(C)p.r(A)p.r(A)p.r(A)p.r(C)p.r(C)p.r(A)p.r(C)p.r(C)p.d(T)p.d(T)}|RNA2{r(G)p.r(G)p.r(U)p.r(G)p.r(G)p.r(U)p.r(U)p.r(U)p.r(G)p.r(A)p.r(A)p.r(G)p.r(G)p.r(G)p.r(G)p.r(U)p.r(A)p.r(G)p.r(U)p.d(C)p.d(T)}$$$RNA1{StrandType:ss}|RNA2{StrandType:as}$	63.1
RNA1{r(A)p.r(A)p.r(G)p.r(C)p.r(C)p.r(A)p.r(C)p.r(A)p.r(A)p.r(U)p.r(U)p.r(A)p.r(U)p.r(G)p.r(G)p.r(G)p.r(A)p.r(C)p.r(C)p.d(T)p.d(T)}|RNA2{r(G)p.r(G)p.r(U)p.r(C)p.r(C)p.r(C)p.r(A)p.r(U)p.r(A)p.r(A)p.r(U)p.r(U)p.r(G)p.r(U)p.r(G)p.r(G)p.r(C)p.r(U)p.r(U)p.d(G)p.d(C)}$$$RNA1{StrandType:ss}|RNA2{StrandType:as}$	52

Reference: the OligoGym collection
